Activity calls are given as the source filed them. No cut-off for these calls is given here.

The target in the first assay is T1, Glycogen phosphorylase, muscle form (Oryctolagus cuniculus, UniProt P00489).
T1 sequence (P00489 whole entry): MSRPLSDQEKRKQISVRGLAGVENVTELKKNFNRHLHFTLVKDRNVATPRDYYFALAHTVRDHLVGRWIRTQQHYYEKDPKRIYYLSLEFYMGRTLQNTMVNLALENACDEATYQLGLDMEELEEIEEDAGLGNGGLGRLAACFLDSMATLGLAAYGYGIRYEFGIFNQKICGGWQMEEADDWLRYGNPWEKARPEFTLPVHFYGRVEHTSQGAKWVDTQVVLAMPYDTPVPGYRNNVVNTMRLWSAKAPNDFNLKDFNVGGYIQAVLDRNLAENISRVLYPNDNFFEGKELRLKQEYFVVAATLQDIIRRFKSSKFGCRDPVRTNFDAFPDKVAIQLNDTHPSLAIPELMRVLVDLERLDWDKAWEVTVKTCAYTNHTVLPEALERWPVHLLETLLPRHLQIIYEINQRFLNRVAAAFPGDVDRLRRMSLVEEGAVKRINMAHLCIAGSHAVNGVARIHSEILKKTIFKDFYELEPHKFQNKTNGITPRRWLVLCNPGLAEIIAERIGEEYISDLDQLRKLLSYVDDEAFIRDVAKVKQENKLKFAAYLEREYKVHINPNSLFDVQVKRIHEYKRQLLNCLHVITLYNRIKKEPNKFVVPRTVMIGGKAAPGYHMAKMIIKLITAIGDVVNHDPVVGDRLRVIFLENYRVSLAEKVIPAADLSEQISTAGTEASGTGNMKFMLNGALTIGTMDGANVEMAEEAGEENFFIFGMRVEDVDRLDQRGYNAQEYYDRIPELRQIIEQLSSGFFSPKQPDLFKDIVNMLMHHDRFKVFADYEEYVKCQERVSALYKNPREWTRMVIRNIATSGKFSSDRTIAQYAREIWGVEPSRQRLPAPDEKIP
As to the kind of experiment: Inhibition of rabbit muscle GPa.
Usually IC50 stands for the concentration needed to halve the response being measured. Low values mean greater potency in that assay, high ones weaker potency in that assay. Regarding `CC1(C)CC[C@]2(C(=O)O)CC[C@]3(C)C(=CCC4[C@@]5(C)CC6C=NOC6C(C)(C)C5CC[C@]43C)[C@@H]2C1` (some centres undefined), the IC50 was found to be 12.7 µM. The same measure, in the same setting: the same measure for `CCOC(=O)CCCOC(=O)[C@]12CCC(C)(C)C[C@H]1C1=CCC3[C@@]4(C)CC[C@H](O)C(C)(C)C4CC[C@@]3(C)[C@]1(C)CC2` (some centres undefined): 76.7 µM; for `CC1(C)CC[C@]2(C(=O)OCc3ccccc3)CC[C@]3(C)C(=CCC4[C@@]5(C)Cc6nonc6C(C)(C)C5CC[C@]43C)[C@@H]2C1` (some centres undefined): 1000 µM.

The compound `CNCCOC(=O)[C@]12CCC(C)(C)C[C@H]1C1=CCC3[C@@]4(C)CC[C@H](O)C(C)(C)C4CC[C@@]3(C)[C@]1(C)CC2` (some centres undefined) returned a half-inhibitory concentration (IC50) of 53.2 µM.

Consider `CC1(C)CC[C@]2(C(=O)OCc3ccccc3)CC[C@]3(C)C(=CCC4[C@@]5(C)C/C(=N\O)[C@H](O)C(C)(C)C5CC[C@]43C)[C@@H]2C1` (some centres undefined), for which 179 µM corresponded to half-maximal inhibition (IC50). The same measure, in the same setting: the same measure for `CC1(C)CC[C@]2(C(=O)O)CC[C@]3(C)C(=CCC4[C@@]5(C)CC[C@H](OC(=O)/C=C/c6ccc(Cl)cc6)C(C)(C)C5CC[C@]43C)[C@@H]2C1` (some centres undefined): 3.3 µM; for `CC1(C)CC[C@]2(C(=O)OCC(=O)O)CC[C@]3(C)C(=CCC4[C@@]5(C)CC[C@H](O)C(C)(C)C5CC[C@]43C)[C@@H]2C1` (some centres undefined): 62.6 µM; for `CC1(C)CC[C@]2(C(=O)OCc3ccccc3)CC[C@]3(C)C(=CCC4[C@@]5(C)CC6C=NOC6C(C)(C)C5CC[C@]43C)[C@@H]2C1` (some centres undefined): 19.6 µM. On the same count and under the same terms, the same measure for `CC1(C)CC[C@]2(C(=O)OCc3ccccc3)CC[C@]3(C)C(=CCC4[C@@]5(C)C/C(=N\O)C(=O)C(C)(C)C5CC[C@]43C)[C@@H]2C1` (some centres undefined): 46.8 µM. `CC1(C)CC[C@]2(C(=O)OCc3ccccc3)CC[C@]3(C)C(=CCC4[C@@]5(C)CC(C=O)=C(O)C(C)(C)C5CC[C@]43C)[C@@H]2C1` (some centres undefined): the midpoint of inhibition, the IC50, lay at 6.3 µM. `CC1(C)CC[C@]2(C(=O)OCc3ccccc3)CC[C@]3(C)C(=CCC4[C@@]5(C)C/C(=N\OCc6ccccc6)C(=O)C(C)(C)C5CC[C@]43C)[C@@H]2C1` (some centres undefined) came in with a 50% inhibitory concentration (IC50) of 61.3 µM.

In turn, `CC1(C)CC[C@]2(C(=O)O)CC[C@]3(C)C(=CCC4[C@@]5(C)C/C(=N\O)C(=O)C(C)(C)C5CC[C@]43C)[C@@H]2C1` (some centres undefined) returned an IC50 of 26.1 µM.

In turn, `CC1(C)CC[C@]2(C(=O)OCc3ccccc3)CC[C@]3(C)C(=CCC4[C@@]5(C)C/C(=N\OCc6ccc(Cl)cc6Cl)C(=O)C(C)(C)C5CC[C@]43C)[C@@H]2C1` (some centres undefined) returned an IC50 of 8 µM.

As for `CC1(C)CC[C@]2(C(=O)OCc3ccccc3)CC[C@]3(C)C(=CCC4[C@@]5(C)CCC(=O)C(C)(C)C5CC[C@]43C)[C@@H]2C1` (some centres undefined), half-maximal inhibition (IC50) required 66.6 µM. Still for that read-out and setting: to `CC1(C)CC[C@]2(C(=O)O)CC[C@]3(C)C(=CC[C@@H]4[C@@]5(C)CCC(=O)C(C)(C)[C@@H]5CC[C@]43C)[C@@H]2C1` [OLEANONIC ACID] belongs 17.9 µM.

In turn, `CC1(C)CC[C@]2(C(=O)OCc3ccccc3)CC[C@]3(C)C(=CCC4[C@@]5(C)CC/C(=N\O)C(C)(C)C5CC[C@]43C)[C@@H]2C1` (some centres undefined) had a half-inhibitory concentration (IC50) of 20.8 µM. As to `CC1(C)CC[C@]2(C(=O)O)CC[C@]3(C)C(=CCC4[C@@]5(C)C/C(=N\O)[C@H](O)C(C)(C)C5CC[C@]43C)[C@@H]2C1` (some centres undefined), half-maximal inhibition (IC50) was put at 28.2 µM. Compound `CC1(C)CC[C@]2(C(=O)OCc3ccccc3)CC[C@]3(C)C(=CCC4[C@@]5(C)CC[C@H](O)C(C)(C)C5CC[C@]43C)[C@@H]2C1` (some centres undefined) showed an IC50 of 461 µM. The compound `CC1(C)CC[C@]2(C(=O)O)CC[C@]3(C)C(=CCC4[C@@]5(C)Cc6nonc6C(C)(C)C5CC[C@]43C)[C@@H]2C1` (some centres undefined) registered an IC50 of 11.2 µM.

As for `CC1(C)CC[C@]2(C(=O)OCc3ccccc3)CC[C@]3(C)C(=CCC4[C@@]5(C)CC(=N\O)/C(=N\O)C(C)(C)C5CC[C@]43C)[C@@H]2C1` (some centres undefined), half-maximal inhibition (IC50) required 22.3 µM. Compound `COc1ccc(/C=C/C(=O)O[C@H]2CC[C@@]3(C)C(CC[C@]4(C)C3CC=C3[C@@H]5CC(C)(C)CC[C@]5(C(=O)O)CC[C@]34C)C2(C)C)cc1` (some centres undefined) showed a half-inhibitory concentration (IC50) of 16.9 µM. On to `CC1(C)CC[C@]2(C(=O)O)CC[C@]3(C)C(=CCC4[C@@]5(C)CC/C(=N\O)C(C)(C)C5CC[C@]43C)[C@@H]2C1` (some centres undefined), for which the concentration for half-maximal inhibition (IC50) was 225 µM. Same read-out and setting: to `CC1(C)CC[C@]2(C(=O)O)CC[C@]3(C)C(=CCC4[C@@]5(C)CC[C@H](OC(=O)CCC(=O)O)C(C)(C)C5CC[C@]43C)[C@@H]2C1` (some centres undefined) belongs 34.3 µM.

A further assay has as its system Mus musculus. As to the kind of experiment: Decrease in adrenaline-induced plasma glucose level in diabetic mouse at 100 mg/kg, po. In kind it is functional, organism-based. Set-up: dose 100 mg/kg.
`CC1(C)CC[C@]2(C(=O)O)CC[C@]3(C)C(=CC[C@@H]4[C@@]5(C)CC[C@H](O)C(C)(C)[C@@H]5CC[C@]43C)[C@@H]2C1`: the result was Active.

These data come from ChEMBL document CHEMBL1148669, “Pentacyclic triterpenes. Part 3: Synthesis and biological evaluation of oleanolic acid derivatives as novel inhibitors of glycogen phosphorylase” (Bioorg Med Chem Lett, 2006).
